Data: ChEMBL document CHEMBL4513134, “CO-ADD screening of University of Queensland (Australia) compounds” (2021)

How the values were obtained:
Candida albicans = test: microbe, parasite or virus in culture; conditions: ATCC 90028, ASSAY_TEST Inhibition of Fungal Growth, detection method Absorption (OD530), plate type 384well, NBS, CORNING #3640
Description: Antifungal activity against Candida albicans ATCC 90028 (CO-ADD:FG_001); MIC in YNB media using NBS plates, by OD630

Staphylococcus aureus = test: microbe, parasite or virus in culture; conditions: ATCC 43300, 18 h, ASSAY_TEST Inhibition of Bacterial Growth, detection method Absorption (OD600), MEDIA CAMHB, plate type 384well, NBS, CORNING #3640
Description: Antibacterial activity against Staphylococcus aureus MRSA ATCC 43300 (CO-ADD:GP_020); MIC in CAMBH media, using NBS plates, by OD(600)

Acinetobacter baumannii = test: microbe, parasite or virus in culture; conditions: ATCC 19606, 18 h, ASSAY_TEST Inhibition of Bacterial Growth, detection method Absorption (OD600), MEDIA CAMHB, plate type 384well, NBS, CORNING #3640
Description: Antibacterial activity against Acinetobacter baumannii ATCC 19606 (CO-ADD:GN_034); MIC in CAMBH media using NBS plates, by OD600

HEK293 = test: cells; type: functional, Homo sapiens, ATCC CRL1573; conditions: Homo sapiens, ATCC CRL1573, HEK293; ASSAY_TEST Inhibition of Cell Viability; detection method Resazurin; Fluorescence (ex560/em590); MEDIA DMEM with 10% FBS; plate type 384well; TC; CORNING #3712; time 18 hr; read-out: CC50
Klebsiella pneumoniae = test: microbe, parasite or virus in culture; conditions: ATCC 700603, 18 h, ASSAY_TEST Inhibition of Bacterial Growth, detection method Absorption (OD600), MEDIA CAMHB, plate type 384well, NBS, CORNING #3640
Description: Antibacterial activity against Klebsiella pneumoniae MDR ATCC 70063 (CO-ADD:GN_003); MIC in CAMBH media using NBS plates, by OD(600)

Escherichia coli = test: microbe, parasite or virus in culture; conditions: ATCC 25922, 18 h, ASSAY_TEST Inhibition of Bacterial Growth, detection method Absorption (OD600), MEDIA CAMHB, plate type 384well, NBS, CORNING #3640
Description: Antibacterial activity against Escherichia coli ATCC 25922 (CO-ADD:GN_001); MIC in CAMBH media using NBS plates, by OD(600)

Pseudomonas aeruginosa = test: microbe, parasite or virus in culture; conditions: ATCC 27853, 18 h, ASSAY_TEST Inhibition of Bacterial Growth, detection method Absorption (OD600), MEDIA CAMHB, plate type 384well, NBS, CORNING #3640
Description: Antibacterial activity against Pseudomonas aeruginosa ATCC 27853 (CO-ADD:GN_042); MIC in CAMBH media using NBS plates, by OD(600)

Description for Cryptococcus neoformans: Antifungal activity against Cryptococcus neoformans H99 ATCC 208821 (CO-ADD:FG_002); MIC in YNB media using NBS plates, by Resazurin OD(600-570)

MIC (Candida albicans)	MIC (Staphylococcus aureus)	MIC (Acinetobacter baumannii)	MIC (Cryptococcus neoformans)	MIC (Klebsiella pneumoniae)	MIC (Escherichia coli)	MIC (Pseudomonas aeruginosa)	SMILES	CC50 (HEK293)
> 32 µg/mL	> 32 µg/mL	> 32 µg/mL	> 32 µg/mL	> 32 µg/mL	> 32 µg/mL	> 32 µg/mL	Cn1c([N+](=O)[O-])cnc1C(=O)NC1CCCCC1	> 32 µg/mL
> 32 µg/mL	> 32 µg/mL	> 32 µg/mL	> 32 µg/mL	> 32 µg/mL	> 32 µg/mL	> 32 µg/mL	Cn1c([N+](=O)[O-])cnc1C(=O)OC1CCCCC1	> 32 µg/mL
> 32 µg/mL	> 32 µg/mL	> 32 µg/mL	> 32 µg/mL	> 32 µg/mL	> 32 µg/mL	> 32 µg/mL	CN(Cc1ccccc1)C(=O)c1ncc([N+](=O)[O-])n1C	> 32 µg/mL
